The values below come from ChEMBL document CHEMBL3120142 (J Med Chem, 2014).

Active and inactive are the calls of the source. No cut-off for these calls is given here.

The subject of the assay is Influenza A virus. Format: functional, organism-based. Particulars: A/Berlin/55/08(H1N1), MDCK.

For `CCC(CC)O[C@@H]1C=C(C(=O)O)C[C@H](N)[C@H]1NC(C)=O` [OSELTAMIVIR CARBOXYLATE], the outcome was Active. For `CC(=O)N[C@H]1[C@H]([C@H](O)[C@H](O)CO)OC(C(=O)O)=C[C@@H]1NC(=N)N` [ZANAMIVIR] the value was “Active”.
